Values of other authors in publication PMC9230590, “Pharmacokinetics and Tissue Distribution of Enavogliflozin in Mice and Rats” (Pharmaceutics, 2022).
Where two headings read alike, the source gives them in different places.

What was measured:
[1] = parameters: method as in PMID 32183468; details: mice; cited from earlier work
[2] = cited from earlier work
HbA1c = details: cited from earlier work
[3] = rats and humans, single oral dose of [14C]dapagliflozin; cited from earlier work
[4] = single oral administration of [14C]ipragliflozin
[5] = single oral administration of [14C]canagliflozin

## OC[C@H]1O[C@@H](c2ccc(F)c(Cc3cc4ccccc4s3)c2)[C@H](O)[C@@H](O)[C@@H]1O [ipragliflozin]
[1]
  ratio of AUC in kidney to AUC in plasma: 38.4 ± 5.3
[2]; [4]
  cumulative fecal recovery of drug-related radioactivity: 86.9% ± 2.6%
  glucuronide metabolite identified in feces: about 64%
  unchanged drug identified in feces: less than 5%

## Cc1ccc([C@@H]2O[C@H](CO)[C@@H](O)[C@H](O)[C@H]2O)cc1Cc1ccc(-c2ccc(F)cc2)s1 [canagliflozin]
HbA1c; untreated type 2 diabetic (T2DM) patients
  reduction of HbA1c: 0.97%
[2]; [5]
  fecal recovery of radioactivity: 85.4–93.7%
  hydroxylated metabolites in fecal recovery: 7.6–64.3%
  unchanged drug in fecal recovery: 3.5–38.7%

## CCOc1ccc(Cc2cc([C@@H]3O[C@H](CO)[C@@H](O)[C@H](O)[C@H]3O)ccc2Cl)cc1 [dapagliflozin]
[3]
  drug-related radioactivity (parent and glucuronide metabolite) recovered in urine: more than 90%
HbA1c; monotherapy 2.5–10 mg, once daily for 24 weeks, untreated T2DM patients
  reduction in HbA1c values: 0.67–0.84%
HbA1c; with conventional anti-diabetes medication, meta-analysis
  reduction of mean HbA1c compared with conventional monotherapy: 0.54%
[1]
  ratio of AUC in kidney to AUC in plasma: 64.6 ± 31.8

## OC[C@H]1O[C@@H](c2ccc(Cl)c(Cc3ccc(O[C@H]4CCOC4)cc3)c2)[C@H](O)[C@@H](O)[C@@H]1O [empagliflozin]
HbA1c; empagliflozin-treated patients
  reduction of HbA1c: 0.74–0.85%
